These results are taken from patent US11274091B2 (Dizal (Jiangsu) Pharmaceutical Co., Ltd., priority 2018, dated 2022).

The target of one assay is human TRPC6 ion channel (Homo sapiens (Human), UniProt Q9Y210). The experiment in a line: Inhibition of TRPC6 FLIPR Assay (membrane potential dye, OAG challenge). As to conditions: TRPC6-HEK293 cells, OAG at EC80; most potent isolated isomer; mean of minimum 2 experiments. Type of assay: cell-based. An excerpt: (§1) TRPC3 and TRPC6 channel opening causes an influx of predominantly calcium and sodium cations that result in a change in the electrical potential across the cell membrane. This change in membrane potential can be monitored using membrane potential dyes in the following FLIPR™ (Fluorescent Imaging Plate Reader) assays.
TRPC6-HEK293 was purchased from PerkinElmer (PerkinElmer, Product No.: AX-012-C), HEK293 cells were transfected using the pcDNA3.1(+)expression vector containing the coding sequence of the human TRPC6 ion channel. The coding sequence used is identical to coding sequence of GenBank NM_004621 with the exception of 2 synonym variations (t1683c and c2529t). The cells were grown in DMEM+10% fetal bovine serum (FBS) 0.5 mg/ml. Geneticin (ion channel expression selection) as culture medium.
TRPC6 cells were plated at 10K cells/well into 384-well polystyrene plates and then grown for 24 hs at 37° C. plus 5% CO2. After this time the media was aspirated using a Tecan plate washer and then replaced with 40 μL of dye loading buffer (130 mM NaCl, 5 mM KCl, 0.15 mM CaCl2, 1 mM MgCl2, 20 mM HEPES ((4-(2-hydroxyethyl)-1-piperazineethanesulfonic acid)), 5 mM NaHCO3). For TRPC6, a final concentration of 0.5× is used. Cells with membrane potential dye were then incubated for 30 mins at room temperature prior to beginning the experiments.
(§2) To test the effects of compounds on TRPC6 activity, compounds were first diluted in 100% DMSO to 3× the final concentration to be used in the experiments. Typical dose-response experiments ranged from 10 μM (top concentration) to 0.5 nM (lowest concentration). Ten microliters of 0.5× compound in 0.5% DMSO were added to 40 μL of cells incubated with membrane potential dye. Compound addition was performed on a FLIPRTetra or a FLIPR 384 (MDS Analytical Technologies, Molecular Devices, Sunnyvale, Calif., 94089, USA). After a 400 second incubation with compound, 12.5 of OAG (1-oleoyl-2-acetyl-sn-glycerol (OAG), Sigma, Gillingham, Dorset, SP8 4XT Cat #O6754-10 MG) was added at 5× the EC80 (typical EC80 for TRPC6=3 μM final). The OAG challenge is designed to measure the inhibitory activity of compounds on receptor-operated TRPC6 activation.
(§3) All data was normalized to low controls (buffer alone) or high controls (OAG EC100). Data was analyzed using an XC50 curve fitting module and reported as pIC50 or IC50 values. The values are averaged to determine a mean value, for a minimum of 2 experiments.

For another assay, the target named is human TRPC3 ion channel (Homo sapiens (Human), UniProt Q13507). In words: Inhibition of TRPC3 FLIPR Assay (membrane potential dye, OAG challenge). The format is cell-based. To be noted: TRPC3 transfected AD293 cells, OAG at EC80; most potent isolated isomer; mean of minimum 2 experiments.
Source text: as §1
AD293 cells were transfected using the PLVX-puro lentivirus vector containing the coding sequence of the human TRPC3 ion channel. Puromycin-resistant cells were selected by treating with […] puromycin for two weeks. Monoclonal cells were obtained by limiting dilution and compared for their response to OAG in a membrane potential assay. The cells were grown in DMEM+10% fetal bovine serum (FBS)+1 μg/mL puromycin as culture medium.
TRPC3 cells were plated at 9K/well into 384-well polystyrene plates. Cells were grown for 24 h at 37° C. plus 5% CO2 after which media was aspirated using a Tecan plate washer and replaced with 40 μL of dye loading buffer (130 mM NaCl, 5 mM KCl, 0.15 mM CaCl2, 1 mM MgCl2, 20 mM HEPES ((4-(2-hydroxyethyl)-1-piperazineethanesulfonic acid)), 5 mM NaHCO3). For TRPC3 a final concentration of 0.5× membrane potential dye (Molecular Devices Membrane Blue, FLIPR Membrane Potential Assay Kit (bulk), Product #R8034(BLUE), Molecular Devices, Sunnyvale, Calif., 94089, USA) was used. Cells with membrane potential dye were then incubated for 30 mins at room temperature prior to beginning the experiments.
as §2, with “TRPC3” for “TRPC6”, “5×” for “0.5×”, “Technologies).” for “Technologies, Molecular Devices, Sunnyvale, Calif., 94089, USA).”, “12.5 μL” for “12.5”, “OAG” for “OAG (1-oleoyl-2-acetyl-sn-glycerol (OAG), Sigma, Gillingham, Dorset, SP8 4XT Cat #O6754-10 MG)”, “TRPC3=2” for “TRPC6=3”
as §3

Sequence of human TRPC3 ion channel (Q13507 whole entry): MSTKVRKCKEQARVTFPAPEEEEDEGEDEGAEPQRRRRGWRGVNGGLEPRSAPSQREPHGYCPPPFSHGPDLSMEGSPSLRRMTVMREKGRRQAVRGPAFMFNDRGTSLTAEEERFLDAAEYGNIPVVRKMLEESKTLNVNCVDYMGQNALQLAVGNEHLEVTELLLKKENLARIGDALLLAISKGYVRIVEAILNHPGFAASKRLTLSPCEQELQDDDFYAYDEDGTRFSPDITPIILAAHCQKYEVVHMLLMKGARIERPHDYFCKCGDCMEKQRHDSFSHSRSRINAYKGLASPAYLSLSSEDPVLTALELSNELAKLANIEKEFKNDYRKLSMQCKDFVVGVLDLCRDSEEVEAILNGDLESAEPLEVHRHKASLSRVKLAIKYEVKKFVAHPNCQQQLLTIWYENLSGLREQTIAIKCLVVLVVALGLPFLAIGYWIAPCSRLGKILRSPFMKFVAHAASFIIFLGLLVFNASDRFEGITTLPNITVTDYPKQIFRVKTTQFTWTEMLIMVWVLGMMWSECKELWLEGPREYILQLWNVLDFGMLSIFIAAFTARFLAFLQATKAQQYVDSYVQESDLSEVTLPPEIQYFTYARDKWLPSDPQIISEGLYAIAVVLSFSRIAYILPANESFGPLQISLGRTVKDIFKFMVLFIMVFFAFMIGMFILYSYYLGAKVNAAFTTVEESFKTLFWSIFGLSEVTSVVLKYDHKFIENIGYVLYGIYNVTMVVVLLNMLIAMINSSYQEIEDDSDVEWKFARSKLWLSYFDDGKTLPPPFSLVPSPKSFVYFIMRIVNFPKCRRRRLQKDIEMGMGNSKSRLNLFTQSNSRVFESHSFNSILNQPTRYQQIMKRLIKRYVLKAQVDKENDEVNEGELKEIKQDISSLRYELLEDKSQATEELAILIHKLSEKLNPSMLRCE
Sequence of human TRPC6 ion channel (Q9Y210 whole entry): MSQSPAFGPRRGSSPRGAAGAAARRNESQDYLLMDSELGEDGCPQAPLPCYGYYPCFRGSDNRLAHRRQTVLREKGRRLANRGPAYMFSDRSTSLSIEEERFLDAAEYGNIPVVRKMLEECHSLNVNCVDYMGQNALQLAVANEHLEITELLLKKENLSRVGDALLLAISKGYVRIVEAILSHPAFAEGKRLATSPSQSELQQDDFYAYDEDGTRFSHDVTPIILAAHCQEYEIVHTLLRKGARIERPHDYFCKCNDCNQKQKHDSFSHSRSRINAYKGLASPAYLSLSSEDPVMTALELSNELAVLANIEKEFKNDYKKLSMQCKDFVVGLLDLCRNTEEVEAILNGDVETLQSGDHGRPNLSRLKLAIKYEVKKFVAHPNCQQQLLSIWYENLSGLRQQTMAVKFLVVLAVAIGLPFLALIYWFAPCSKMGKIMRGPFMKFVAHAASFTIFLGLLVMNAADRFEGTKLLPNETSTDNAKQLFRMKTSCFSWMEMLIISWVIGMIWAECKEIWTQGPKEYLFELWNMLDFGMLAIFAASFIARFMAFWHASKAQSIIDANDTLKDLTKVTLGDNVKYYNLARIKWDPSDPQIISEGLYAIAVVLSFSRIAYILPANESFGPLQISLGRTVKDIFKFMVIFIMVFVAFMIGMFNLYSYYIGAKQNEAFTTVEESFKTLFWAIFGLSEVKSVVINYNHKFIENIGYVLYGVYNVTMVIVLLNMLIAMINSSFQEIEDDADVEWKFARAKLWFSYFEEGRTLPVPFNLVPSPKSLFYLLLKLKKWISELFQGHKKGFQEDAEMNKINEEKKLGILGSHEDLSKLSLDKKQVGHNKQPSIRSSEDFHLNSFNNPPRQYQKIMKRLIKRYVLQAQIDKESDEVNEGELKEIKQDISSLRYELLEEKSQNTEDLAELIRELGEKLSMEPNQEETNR

As a reminder, the IC50 is the point on the concentration scale where inhibition reaches its midpoint. Take `N#Cc1ccc(OC2CC(c3ccc(F)cc3)CC2N2CC(N)CC(F)C2)nn1` (stereo not shown) [Example 24, 6-[2-(3-amino-5-fluoro-1-piperidyl)-4-(4-fluorophenyl)cyclopentoxy]pyridazine-3-carbonitrile]: the IC50 at human TRPC6 ion channel is above 11.8 nM; on human TRPC3 ion channel it was 7.2 nM.
Turning to `N[C@@H]1CCCN([C@H]2C[C@@H](c3ccc(F)cc3)C[C@@H]2Oc2cc(F)cnn2)C1` [Example 25, (R)-1-((1S,2S,4R)-4-(4-fluorophenyl)-2-(5-fluoropyridazin-3-yloxy)cyclopentyl)piperidin-3-amine], the IC50 against human TRPC6 ion channel stood at 9.93 nM; against human TRPC3 ion channel, 209 nM.
Turning to `N#Cc1ccc(OC2CC(c3ccc(F)cc3)CC2N2CCCC(N)C2)cn1` (stereo not shown) [Example 27], the IC50 stood at 22 nM at human TRPC6 ion channel and 50.7 nM at human TRPC3 ion channel.
For `NC1CCCN(C2CC(c3ccc(F)cc3)CC2Oc2cccnn2)C1` (stereo not shown) [Example 28, 1-[4-(4-fluorophenyl)-2-pyridazin-3-yloxy-cyclopentyl]piperidin-3-amine], in that order: 17.8 nM and 32.2 nM.
For `NC1CC(F)CN(C2CC(c3ccc(F)cc3)CC2Oc2ccncn2)C1` (stereo not shown) [Example 29, 5-fluoro-1-[4-(4-fluorophenyl)-2-pyrimidin-4-yloxy-cyclopentyl]piperidin-3-amine], in that order: 3.44 nM and 3.68 nM.
With `N#Cc1cnc(OC2CC(c3ccc(F)cc3)CC2N2CCCC(N)C2)nc1` (stereo not shown) [Example 30, 2-[2-(3-amino-1-piperidyl)-4-(4-fluorophenyl)cyclopentoxy]pyrimidine-5-carbonitrile], the results for the IC50 at human TRPC6 ion channel and at human TRPC3 ion channel were 11.5 nM and 24 nM, respectively.
Regarding `N#Cc1cnc(OC2CC(c3ccc(F)cc3)CC2N2CCCC(N)C2)cn1` (stereo not shown) [Example 31, 5-[2-(3-amino-1-piperidyl)-4-(4-fluorophenyl)cyclopentoxy]pyrazine-2-carbonitrile], the IC50 at human TRPC6 ion channel was 13.7 nM; on human TRPC3 ion channel, 25.5 nM.
As for `N#Cc1ncc(OC2CC(c3ccc(F)cc3)CC2N2CCCC(N)C2)cn1` (stereo not shown) [Example 32, 5-[2-(3-amino-1-piperidyl)-4-(4-fluorophenyl)cyclopentoxy]pyrimidine-2-carbonitrile], the IC50 was 10.6 nM on human TRPC6 ion channel and 39.2 nM on human TRPC3 ion channel.
